Numbers after ± are expanded uncertainties.
Assay: wn = mass fraction of the nth substance listed
Details: 101.33 kPa, Liquid

O=S(=O)(O)O [sulfuric acid] + O
Details | mass density, w1 = 0.1 [kg/m3] | mass density, w1 = 0.2 [kg/m3] | mass density, w1 = 0.3 [kg/m3] | viscosity, w1 = 0.1 [mPa·s] | viscosity, w1 = 0.2 [mPa·s] | viscosity, w1 = 0.3 [mPa·s]
293.15 K | 1066.2 ± 1.2 | 1139.5 ± 1.3 | 1218.3 ± 1.4 | 1.231 ± 0.028 | 1.55 ± 0.035 | 2.009 ± 0.044
303.15 K | 1061.9 ± 1.2 | 1133.3 ± 1.3 | 1211.7 ± 1.4 | 0.9804 ± 0.023 | 1.229 ± 0.028 | 1.601 ± 0.036
313.15 K | 1056.8 ± 1.3 | 1126.9 ± 1.3 | 1204.3 ± 1.4 | 0.7896 ± 0.018 | 0.9887 ± 0.023 | 1.306 ± 0.029
323.15 K | 1051.8 ± 1.3 | 1121.1 ± 1.3 | 1198 ± 2 | 0.661 ± 0.016 | 0.8311 ± 0.019 | 1.1 ± 0.025
333.15 K | 1046.3 ± 1.3 | 1115.3 ± 1.4 | 1190.7 ± 1.4 | 0.5598 ± 0.014 | 0.7105 ± 0.017 | 0.9426 ± 0.022
343.15 K | 1039.6 ± 1.3 | 1108.8 ± 1.4 | 1184.2 ± 1.5 | 0.4902 ± 0.012 | 0.6409 ± 0.015 | 0.8467 ± 0.02

— the NIST ThermoML archive (doi:10.1021/je050443o)
